Bounds are passed on as bounds.

The subject of data set [1] is C8166 cells. Description: Protective experiment: survival rate of normal cells (MTT). Format: cell-based. The settings on record: normal C8166 cells in protective experiment, three days.
Experimental: 50 µl medium was added into half of the holes on the culture plate and 50 µl diluted supernatant fluid of HIV-1, in which the value of M.O.I was 0.0089, was added into the other half of the holes on the culture plate. At the same time, the blank control holes without the drug (the negative control) were set and the control culture holes with positive drug AZT (the positive control) were set too. They were put into 5% CO2 incubator under 37 °C for three days. The survival rate of cells was determined by MTT method. […] The following formulae were used to calculate the survival rate of normal cells caused by the drug and the protective rate of the drug for HIV-1-infected cells. Survival rate of normal cells(%)=OD value of the experimental hole/OD value of negative control hole□100% Protective rate of infected cells(%)=(OD value of the experimental hole−OD value of positive control hole)/(OD value of negative control hole−OD value of positive control hole)□100%
The test system of data set [2] is C8166 cells. Put plainly: Cytotoxic effect on C8166 cells (MTT). Format: cell-based. The note with it: three days, one value per date of experiment.

As for `Cc1cn([C@H]2C[C@H](N=[N+]=[N-])[C@@H](CO)O2)c(=O)[nH]c1=O` [AZT], the TC50 in the data set with C8166 cells [1] and in the data set with C8166 cells [2] was greater than 50 µg/mL each time.

(Values after patent US20070253980A1, “New pharmaceutical composition from natural materials for regulating immunity, its preparation method and use” (priority 2006, published 2007).)
